Results taken from the supplement of paper PMC10307832.

Tests used:
Experiment in all cases: relative viability (nuclei count vs DMSO), 5 days (fraction); higher = more cells survive
CAL-12T = test system: CAL-12T
How it was run: (§1)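 Lung cancer cell lines in 1536-well plates were dosed by pin tool the day after seeding, either with one drug alone or with a fixed anchor-drug dose plus five library-drug doses (not always all listed) in √10 steps. After 5 days, cells were fixed and their nuclei stained in one step (final 0.05% Triton X-100, 1% formaldehyde, 1 ug/ml Hoechst), then counted on 4× images. Relative viability is the nuclei count in treated wells divided by that in vehicle wells. Values are medians of duplicate plates.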

SK-LU-1 = test system: SK-LU-1
How it was run: as §1

NCI-H1437 = test system: NCI-H1437
How it was run: as §1

NCI-H2342 = test system: NCI-H2342
How it was run: as §1

NCI-H441 = test system: NCI-H441
How it was run: as §1

COR-L23 = test system: COR-L23
How it was run: as §1

NCI-H460 = test system: NCI-H460
How it was run: as §1

LU99A = test system: LU99A
How it was run: as §1

NCI-H1793 = test system: NCI-H1793
How it was run: as §1

NCI-H1650 = test system: NCI-H1650
How it was run: as §1

NCI-H1355 = test system: NCI-H1355
How it was run: as §1

NCI-H838 = test system: NCI-H838
How it was run: as §1

NCI-H2085 = test system: NCI-H2085
How it was run: as §1

NCI-H1975 = test system: NCI-H1975
How it was run: as §1

NCI-H1563 = test system: NCI-H1563
How it was run: as §1

NCI-H1734 = test system: NCI-H1734
How it was run: as §1

NCI-H1651 = test system: NCI-H1651
How it was run: as §1

NCI-H358 = test system: NCI-H358
How it was run: as §1

BEN = test system: BEN
How it was run: as §1

HCC-366 = test system: HCC-366
How it was run: as §1

LOU-NH91 = test system: LOU-NH91
How it was run: as §1

NCI-H2023 = test system: NCI-H2023
How it was run: as §1

## O=c1cc(-c2cccc3c2Sc2ccccc2S3)oc(N2CCOCC2)c1 + N=C(N)NC(=N)NCCc1ccccc1 [Phenformin] (partner 250 µM)
CAL-12T; first compound 0.08 µM
  relative viability: 0.534
CAL-12T; first compound 0.253 µM
  relative viability: 0.603
CAL-12T; first compound 0.8 µM
  relative viability: 0.597
CAL-12T; first compound 2.53 µM
  relative viability: 0.514
CAL-12T; first compound 8 µM
  relative viability: 0.487
SK-LU-1; first compound 0.08 µM
  relative viability: 0.545
SK-LU-1; first compound 0.253 µM
  relative viability: 0.551
SK-LU-1; first compound 0.8 µM
  relative viability: 0.737
SK-LU-1; first compound 2.53 µM
  relative viability: 0.459
SK-LU-1; first compound 8 µM
  relative viability: 0.527
NCI-H1437; first compound 0.08 µM
  relative viability: 0.271
NCI-H1437; first compound 0.253 µM
  relative viability: 0.683
NCI-H1437; first compound 0.8 µM
  relative viability: 0.238
NCI-H1437; first compound 2.53 µM
  relative viability: 0.277
NCI-H1437; first compound 8 µM
  relative viability: 0.343
NCI-H2342; first compound 0.08 µM
  relative viability: 0.526
NCI-H2342; first compound 0.253 µM
  relative viability: 0.62
NCI-H2342; first compound 0.8 µM
  relative viability: 0.542
NCI-H2342; first compound 2.53 µM
  relative viability: 0.557
NCI-H2342; first compound 8 µM
  relative viability: 0.608
NCI-H441; first compound 0.08 µM
  relative viability: 0.854
NCI-H441; first compound 0.253 µM
  relative viability: 1.2
NCI-H441; first compound 0.8 µM
  relative viability: 0.895
NCI-H441; first compound 2.53 µM
  relative viability: 0.903
NCI-H441; first compound 8 µM
  relative viability: 0.904
COR-L23; first compound 0.08 µM
  relative viability: 0.478
COR-L23; first compound 0.253 µM
  relative viability: 0.484
COR-L23; first compound 0.8 µM
  relative viability: 0.511
COR-L23; first compound 2.53 µM
  relative viability: 0.459
COR-L23; first compound 8 µM
  relative viability: 0.545
NCI-H460; first compound 0.08 µM
  relative viability: 0.535
NCI-H460; first compound 0.253 µM
  relative viability: 0.549
NCI-H460; first compound 0.8 µM
  relative viability: 0.571
NCI-H460; first compound 2.53 µM
  relative viability: 0.525
NCI-H460; first compound 8 µM
  relative viability: 0.531
LU99A; first compound 0.08 µM
  relative viability: 0.872
LU99A; first compound 0.253 µM
  relative viability: 1.08
LU99A; first compound 0.8 µM
  relative viability: 1.03
LU99A; first compound 2.53 µM
  relative viability: 0.896
LU99A; first compound 8 µM
  relative viability: 1
NCI-H1793; first compound 0.08 µM
  relative viability: 0.344
NCI-H1793; first compound 0.253 µM
  relative viability: 0.398
NCI-H1793; first compound 0.8 µM
  relative viability: 0.347
NCI-H1793; first compound 2.53 µM
  relative viability: 0.306
NCI-H1793; first compound 8 µM
  relative viability: 0.279
NCI-H1650; first compound 0.08 µM
  relative viability: 0.379
NCI-H1650; first compound 0.253 µM
  relative viability: 0.561
NCI-H1650; first compound 0.8 µM
  relative viability: 0.434
NCI-H1650; first compound 2.53 µM
  relative viability: 0.263
NCI-H1650; first compound 8 µM
  relative viability: 0.365
NCI-H1355; first compound 0.08 µM
  relative viability: 0.47
NCI-H1355; first compound 0.253 µM
  relative viability: 0.479
NCI-H1355; first compound 0.8 µM
  relative viability: 0.421
NCI-H1355; first compound 2.53 µM
  relative viability: 0.429
NCI-H1355; first compound 8 µM
  relative viability: 0.409
NCI-H838; first compound 0.08 µM
  relative viability: 0.517
NCI-H838; first compound 0.253 µM
  relative viability: 0.726
NCI-H838; first compound 0.8 µM
  relative viability: 0.488
NCI-H838; first compound 2.53 µM
  relative viability: 0.531
NCI-H838; first compound 8 µM
  relative viability: 0.503
NCI-H2085; first compound 0.08 µM
  relative viability: 0.654
NCI-H2085; first compound 0.253 µM
  relative viability: 0.702
NCI-H2085; first compound 0.8 µM
  relative viability: 0.739
NCI-H2085; first compound 2.53 µM
  relative viability: 0.678
NCI-H2085; first compound 8 µM
  relative viability: 0.576
NCI-H1975; first compound 0.08 µM
  relative viability: 0.42
NCI-H1975; first compound 0.253 µM
  relative viability: 0.488
NCI-H1975; first compound 0.8 µM
  relative viability: 0.418
NCI-H1975; first compound 2.53 µM
  relative viability: 0.386
NCI-H1975; first compound 8 µM
  relative viability: 0.418
NCI-H1563; first compound 0.08 µM
  relative viability: 0.626
NCI-H1563; first compound 0.253 µM
  relative viability: 0.689
NCI-H1563; first compound 0.8 µM
  relative viability: 0.617
NCI-H1563; first compound 2.53 µM
  relative viability: 0.633
NCI-H1563; first compound 8 µM
  relative viability: 0.611
NCI-H1734; first compound 0.08 µM
  relative viability: 0.36
NCI-H1734; first compound 0.253 µM
  relative viability: 0.45
NCI-H1734; first compound 0.8 µM
  relative viability: 0.417
NCI-H1734; first compound 8 µM
  relative viability: 0.436
NCI-H1651; first compound 0.08 µM
  relative viability: 0.342
NCI-H1651; first compound 0.253 µM
  relative viability: 0.526
NCI-H1651; first compound 0.8 µM
  relative viability: 0.423
NCI-H1651; first compound 2.53 µM
  relative viability: 0.362
NCI-H1651; first compound 8 µM
  relative viability: 0.299
NCI-H358; first compound 0.08 µM
  relative viability: 0.301
NCI-H358; first compound 0.253 µM
  relative viability: 0.436
NCI-H358; first compound 0.8 µM
  relative viability: 0.378
NCI-H358; first compound 2.53 µM
  relative viability: 0.362
NCI-H358; first compound 8 µM
  relative viability: 0.356
BEN; first compound 0.08 µM
  relative viability: 0.258
BEN; first compound 0.253 µM
  relative viability: 0.306
BEN; first compound 0.8 µM
  relative viability: 0.248
BEN; first compound 2.53 µM
  relative viability: 0.217
BEN; first compound 8 µM
  relative viability: 0.3
HCC-366; first compound 0.08 µM
  relative viability: 0.588
HCC-366; first compound 0.253 µM
  relative viability: 0.727
HCC-366; first compound 0.8 µM
  relative viability: 0.71
HCC-366; first compound 2.53 µM
  relative viability: 0.549
HCC-366; first compound 8 µM
  relative viability: 0.632
LOU-NH91; first compound 0.08 µM
  relative viability: 0.611
LOU-NH91; first compound 0.253 µM
  relative viability: 0.675
LOU-NH91; first compound 0.8 µM
  relative viability: 0.658
LOU-NH91; first compound 2.53 µM
  relative viability: 0.6
LOU-NH91; first compound 8 µM
  relative viability: 0.741
NCI-H2023; first compound 0.08 µM
  relative viability: 0.401
NCI-H2023; first compound 0.253 µM
  relative viability: 0.484
NCI-H2023; first compound 0.8 µM
  relative viability: 0.476
NCI-H2023; first compound 2.53 µM
  relative viability: 0.362
NCI-H2023; first compound 8 µM
  relative viability: 0.44
